Test results from ChEMBL document CHEMBL3132769, “Fragment growing to retain or alter the selectivity of anchored kinase hinge-binding fragments” (Medchemcomm, 2014).

What was measured:
[1] = molecular target: Dual specificity tyrosine-phosphorylation-regulated kinase 1A (Rattus norvegicus) (UniProt Q63470); assay: Inhibition of rat full length DYRK1a expressed in Escherichia coli cell assessed as substrate phosphorylation using fluorescence-labelled peptides as substrate at 9 uM after 90 mins by microfluidic peptide phosphorylation assay
[2] = tested on: T1, Receptor-type tyrosine-protein kinase FLT3 (Homo sapiens), P36888 [D835Y]; assay: Inhibition of human FLT3 D835Y mutant catalytic domain expressed in baculovirus assessed as substrate phosphorylation using fluorescence-labelled peptides as substrate at 9 uM after 90 mins by microfluidic peptide phosphorylation assay
T1 sequence (whole entry): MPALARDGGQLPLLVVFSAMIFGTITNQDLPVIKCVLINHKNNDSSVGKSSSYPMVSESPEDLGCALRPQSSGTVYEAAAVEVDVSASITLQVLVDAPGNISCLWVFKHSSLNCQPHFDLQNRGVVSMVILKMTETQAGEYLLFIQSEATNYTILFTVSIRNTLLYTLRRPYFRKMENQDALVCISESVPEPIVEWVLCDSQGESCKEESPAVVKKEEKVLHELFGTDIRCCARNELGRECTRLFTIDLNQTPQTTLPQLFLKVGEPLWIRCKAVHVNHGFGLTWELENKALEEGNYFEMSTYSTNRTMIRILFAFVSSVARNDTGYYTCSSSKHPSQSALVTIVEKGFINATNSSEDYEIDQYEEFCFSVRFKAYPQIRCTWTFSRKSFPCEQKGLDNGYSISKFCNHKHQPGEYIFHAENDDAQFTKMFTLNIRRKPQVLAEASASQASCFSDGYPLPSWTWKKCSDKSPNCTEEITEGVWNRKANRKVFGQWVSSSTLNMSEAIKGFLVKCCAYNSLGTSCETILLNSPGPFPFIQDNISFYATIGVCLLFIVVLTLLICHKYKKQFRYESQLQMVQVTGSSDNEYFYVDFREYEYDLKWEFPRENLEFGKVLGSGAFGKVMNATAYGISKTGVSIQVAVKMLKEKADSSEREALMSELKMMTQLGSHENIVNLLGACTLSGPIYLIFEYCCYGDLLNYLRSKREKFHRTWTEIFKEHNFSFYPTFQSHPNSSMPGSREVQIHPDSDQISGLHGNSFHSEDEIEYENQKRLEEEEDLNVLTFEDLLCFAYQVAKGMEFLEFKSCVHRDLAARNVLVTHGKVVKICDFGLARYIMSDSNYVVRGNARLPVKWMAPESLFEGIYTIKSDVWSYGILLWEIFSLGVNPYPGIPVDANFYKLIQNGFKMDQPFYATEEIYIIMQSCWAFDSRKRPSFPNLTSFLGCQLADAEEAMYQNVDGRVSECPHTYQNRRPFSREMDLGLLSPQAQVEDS

[3] = molecular target: Insulin-like growth factor 1 receptor (Homo sapiens) (UniProt P08069); assay: Inhibition of human IGF1R catalytic domain expressed in baculovirus assessed as substrate phosphorylation using fluorescence-labelled peptides as substrate at […] after 90 mins by microfluidic peptide phosphorylation assay
[4] = tested on: Tyrosine-protein kinase ABL1 (Homo sapiens), P00519 [H396P]; assay: Inhibition of human truncated ABL H396P mutant expressed in baculovirus assessed as substrate phosphorylation using fluorescence-labelled peptides as substrate at […] after 90 mins by microfluidic peptide phosphorylation assay
[5] = molecular target: Aurora kinase B (Homo sapiens) (UniProt Q96GD4); assay: Inhibition of human full length AurB expressed in baculovirus assessed as substrate phosphorylation using fluorescence-labelled peptides as substrate at 420 uM after 90 mins by microfluidic peptide phosphorylation assay
[6] = molecular target: Mitogen-activated protein kinase 3 (Homo sapiens) (UniProt P27361); assay: Inhibition of human full length ERK1 expressed in Escherichia coli cell assessed as substrate phosphorylation using fluorescence-labelled peptides as substrate at 420 uM after 90 mins by microfluidic peptide phosphorylation assay
[7] = molecular target: Protein kinase C gamma type (Homo sapiens) (UniProt P05129); assay: Inhibition of human truncated PKC gamma expressed in baculovirus assessed as substrate phosphorylation using fluorescence-labelled peptides as substrate at 420 uM after 90 mins by microfluidic peptide phosphorylation assay
[8] = molecular target: Ribosomal protein S6 kinase alpha-3 (Homo sapiens) (UniProt P51812); assay: Inhibition of human full length RSK2 expressed in baculovirus assessed as substrate phosphorylation using fluorescence-labelled peptides as substrate at 0.2 uM after 90 mins by microfluidic peptide phosphorylation assay
[9] = molecular target: T2, Interleukin-1 receptor-associated kinase 4 (Homo sapiens) (UniProt Q9NWZ3); assay: Inhibition of human IRAK4 catalytic domain expressed in baculovirus assessed as substrate phosphorylation using fluorescence-labelled peptides as substrate at 0.2 uM after 90 mins by microfluidic peptide phosphorylation assay
T2 sequence (whole entry): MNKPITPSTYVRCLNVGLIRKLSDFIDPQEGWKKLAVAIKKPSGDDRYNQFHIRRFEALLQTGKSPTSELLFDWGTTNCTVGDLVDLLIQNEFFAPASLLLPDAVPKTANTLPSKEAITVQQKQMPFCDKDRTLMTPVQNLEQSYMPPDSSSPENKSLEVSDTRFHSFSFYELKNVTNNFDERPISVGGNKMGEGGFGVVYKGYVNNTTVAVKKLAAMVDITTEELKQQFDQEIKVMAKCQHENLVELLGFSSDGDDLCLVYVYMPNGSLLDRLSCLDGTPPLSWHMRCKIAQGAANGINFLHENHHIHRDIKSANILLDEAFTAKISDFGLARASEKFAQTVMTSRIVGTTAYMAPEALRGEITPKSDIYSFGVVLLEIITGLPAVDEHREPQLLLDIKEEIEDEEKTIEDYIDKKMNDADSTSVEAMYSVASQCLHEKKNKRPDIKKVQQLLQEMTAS

[10] = molecular target: Tyrosine-protein kinase Fer (Homo sapiens) (UniProt P16591); assay: Inhibition of human FER catalytic domain expressed in baculovirus assessed as substrate phosphorylation using fluorescence-labelled peptides as substrate at 0.2 uM after 90 mins by microfluidic peptide phosphorylation assay
[11] = molecular target: Tyrosine-protein kinase ABL2 (Homo sapiens) (UniProt P42684); assay: Inhibition of human truncated Arg expressed in baculovirus assessed as substrate phosphorylation using fluorescence-labelled peptides as substrate at 2 uM after 90 mins by microfluidic peptide phosphorylation assay
[12] = tested on: Tyrosine-protein kinase ABL1 (Homo sapiens), P00519 [T315I]; assay: Inhibition of human truncated ABL T315I mutant expressed in baculovirus assessed as substrate phosphorylation using fluorescence-labelled peptides as substrate at 2 uM after 90 mins by microfluidic peptide phosphorylation assay
[13] = molecular target: Serine/threonine-protein kinase MARK2 (Homo sapiens) (UniProt Q7KZI7); assay: Inhibition of human full length MARK2 expressed in baculovirus assessed as substrate phosphorylation using fluorescence-labelled peptides as substrate at 2 uM after 90 mins by microfluidic peptide phosphorylation assay
[14] = molecular target: Ribosomal protein S6 kinase alpha-5 (Homo sapiens) (UniProt O75582); assay: Inhibition of human full length MSK1 expressed in baculovirus assessed as substrate phosphorylation using fluorescence-labelled peptides as substrate at 1000 uM after 90 mins by microfluidic peptide phosphorylation assay
Chain of Ribosomal protein S6 kinase alpha-5 (Homo sapiens) (O75582 whole entry, looked up): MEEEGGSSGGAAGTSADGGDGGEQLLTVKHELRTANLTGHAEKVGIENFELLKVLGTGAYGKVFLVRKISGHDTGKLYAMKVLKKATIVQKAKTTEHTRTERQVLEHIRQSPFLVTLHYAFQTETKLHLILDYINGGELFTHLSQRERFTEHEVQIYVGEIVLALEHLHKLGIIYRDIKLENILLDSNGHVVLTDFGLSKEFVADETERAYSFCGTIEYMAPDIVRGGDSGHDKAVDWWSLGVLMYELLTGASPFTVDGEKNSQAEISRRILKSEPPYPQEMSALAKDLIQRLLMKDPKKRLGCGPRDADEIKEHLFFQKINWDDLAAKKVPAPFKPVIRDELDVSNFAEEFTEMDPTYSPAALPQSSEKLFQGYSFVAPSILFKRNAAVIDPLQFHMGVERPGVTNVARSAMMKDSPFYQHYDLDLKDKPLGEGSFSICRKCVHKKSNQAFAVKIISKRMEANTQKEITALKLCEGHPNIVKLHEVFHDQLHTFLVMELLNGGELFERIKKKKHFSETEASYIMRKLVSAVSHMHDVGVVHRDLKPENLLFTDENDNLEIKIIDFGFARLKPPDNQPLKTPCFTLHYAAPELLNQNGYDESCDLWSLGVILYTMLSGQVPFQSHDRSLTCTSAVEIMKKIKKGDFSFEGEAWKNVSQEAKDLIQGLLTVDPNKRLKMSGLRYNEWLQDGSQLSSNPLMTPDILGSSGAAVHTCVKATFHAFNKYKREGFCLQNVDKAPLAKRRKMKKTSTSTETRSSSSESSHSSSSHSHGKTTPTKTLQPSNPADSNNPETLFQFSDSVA

Chain of Mitogen-activated protein kinase 3 (Homo sapiens) (P27361 whole entry, the tested form may be a part): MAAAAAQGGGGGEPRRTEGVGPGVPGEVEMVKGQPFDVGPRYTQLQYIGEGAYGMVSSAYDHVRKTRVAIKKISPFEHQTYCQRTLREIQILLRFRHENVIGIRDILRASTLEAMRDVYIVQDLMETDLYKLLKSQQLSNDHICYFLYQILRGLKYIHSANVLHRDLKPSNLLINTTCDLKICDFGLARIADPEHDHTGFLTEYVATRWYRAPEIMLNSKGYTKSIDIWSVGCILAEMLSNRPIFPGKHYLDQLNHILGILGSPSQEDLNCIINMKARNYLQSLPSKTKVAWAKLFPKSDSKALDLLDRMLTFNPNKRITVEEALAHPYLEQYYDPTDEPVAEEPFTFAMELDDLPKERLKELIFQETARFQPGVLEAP
Chain of Tyrosine-protein kinase ABL2 (Homo sapiens) (P42684 whole entry, the tested form may be a part): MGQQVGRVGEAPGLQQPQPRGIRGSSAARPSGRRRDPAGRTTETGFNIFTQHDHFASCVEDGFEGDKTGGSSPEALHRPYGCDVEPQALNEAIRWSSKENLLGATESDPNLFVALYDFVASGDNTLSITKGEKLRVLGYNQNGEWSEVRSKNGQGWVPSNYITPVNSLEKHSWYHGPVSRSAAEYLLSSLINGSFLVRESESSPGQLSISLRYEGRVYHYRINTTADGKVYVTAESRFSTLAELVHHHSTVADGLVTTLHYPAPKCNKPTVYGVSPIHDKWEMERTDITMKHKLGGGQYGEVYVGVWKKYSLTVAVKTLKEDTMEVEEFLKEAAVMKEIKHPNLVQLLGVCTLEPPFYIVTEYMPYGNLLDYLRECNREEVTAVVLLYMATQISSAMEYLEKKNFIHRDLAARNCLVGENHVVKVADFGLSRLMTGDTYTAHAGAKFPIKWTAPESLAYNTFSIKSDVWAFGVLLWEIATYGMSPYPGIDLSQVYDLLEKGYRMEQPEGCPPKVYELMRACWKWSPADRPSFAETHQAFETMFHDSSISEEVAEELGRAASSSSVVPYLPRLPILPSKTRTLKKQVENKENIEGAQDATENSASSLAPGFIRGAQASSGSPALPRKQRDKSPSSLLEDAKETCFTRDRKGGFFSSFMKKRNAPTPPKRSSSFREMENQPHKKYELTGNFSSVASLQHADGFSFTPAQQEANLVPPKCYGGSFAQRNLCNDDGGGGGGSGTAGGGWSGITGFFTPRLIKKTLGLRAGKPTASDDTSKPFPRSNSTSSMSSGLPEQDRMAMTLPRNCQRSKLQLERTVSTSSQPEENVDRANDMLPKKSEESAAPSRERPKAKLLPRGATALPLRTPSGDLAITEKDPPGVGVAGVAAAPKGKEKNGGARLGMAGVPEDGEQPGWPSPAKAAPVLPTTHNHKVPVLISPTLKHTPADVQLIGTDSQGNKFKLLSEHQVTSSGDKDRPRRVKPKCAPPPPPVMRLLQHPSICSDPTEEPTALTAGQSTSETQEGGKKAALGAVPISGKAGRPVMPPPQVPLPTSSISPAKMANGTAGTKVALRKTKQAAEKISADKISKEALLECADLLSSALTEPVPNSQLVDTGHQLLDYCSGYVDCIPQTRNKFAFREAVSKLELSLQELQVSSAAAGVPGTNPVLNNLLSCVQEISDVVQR
Chain of Serine/threonine-protein kinase MARK2 (Homo sapiens) (Q7KZI7 whole entry): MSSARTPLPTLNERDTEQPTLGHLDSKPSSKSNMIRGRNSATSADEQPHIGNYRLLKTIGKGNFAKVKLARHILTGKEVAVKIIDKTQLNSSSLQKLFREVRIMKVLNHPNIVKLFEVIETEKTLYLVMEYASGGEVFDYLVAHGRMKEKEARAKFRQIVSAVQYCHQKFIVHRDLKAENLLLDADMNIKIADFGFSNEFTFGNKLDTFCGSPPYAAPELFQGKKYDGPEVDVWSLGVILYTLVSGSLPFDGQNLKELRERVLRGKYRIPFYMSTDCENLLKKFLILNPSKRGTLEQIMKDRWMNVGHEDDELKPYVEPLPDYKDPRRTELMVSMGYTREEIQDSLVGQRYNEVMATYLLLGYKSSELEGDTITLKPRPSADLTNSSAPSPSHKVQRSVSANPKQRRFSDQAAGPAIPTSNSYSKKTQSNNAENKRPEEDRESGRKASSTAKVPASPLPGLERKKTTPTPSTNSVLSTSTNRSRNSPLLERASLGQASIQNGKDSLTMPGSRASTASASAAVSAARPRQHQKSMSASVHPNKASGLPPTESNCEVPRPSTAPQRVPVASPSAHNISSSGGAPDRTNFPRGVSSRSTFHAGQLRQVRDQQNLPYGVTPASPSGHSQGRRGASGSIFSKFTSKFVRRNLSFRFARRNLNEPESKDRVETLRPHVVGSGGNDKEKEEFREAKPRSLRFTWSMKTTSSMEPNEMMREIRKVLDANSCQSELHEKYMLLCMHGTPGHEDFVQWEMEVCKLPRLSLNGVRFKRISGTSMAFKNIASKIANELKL
Chain of Tyrosine-protein kinase Fer (Homo sapiens) (P16591 whole entry, looked up, the tested form may be a part): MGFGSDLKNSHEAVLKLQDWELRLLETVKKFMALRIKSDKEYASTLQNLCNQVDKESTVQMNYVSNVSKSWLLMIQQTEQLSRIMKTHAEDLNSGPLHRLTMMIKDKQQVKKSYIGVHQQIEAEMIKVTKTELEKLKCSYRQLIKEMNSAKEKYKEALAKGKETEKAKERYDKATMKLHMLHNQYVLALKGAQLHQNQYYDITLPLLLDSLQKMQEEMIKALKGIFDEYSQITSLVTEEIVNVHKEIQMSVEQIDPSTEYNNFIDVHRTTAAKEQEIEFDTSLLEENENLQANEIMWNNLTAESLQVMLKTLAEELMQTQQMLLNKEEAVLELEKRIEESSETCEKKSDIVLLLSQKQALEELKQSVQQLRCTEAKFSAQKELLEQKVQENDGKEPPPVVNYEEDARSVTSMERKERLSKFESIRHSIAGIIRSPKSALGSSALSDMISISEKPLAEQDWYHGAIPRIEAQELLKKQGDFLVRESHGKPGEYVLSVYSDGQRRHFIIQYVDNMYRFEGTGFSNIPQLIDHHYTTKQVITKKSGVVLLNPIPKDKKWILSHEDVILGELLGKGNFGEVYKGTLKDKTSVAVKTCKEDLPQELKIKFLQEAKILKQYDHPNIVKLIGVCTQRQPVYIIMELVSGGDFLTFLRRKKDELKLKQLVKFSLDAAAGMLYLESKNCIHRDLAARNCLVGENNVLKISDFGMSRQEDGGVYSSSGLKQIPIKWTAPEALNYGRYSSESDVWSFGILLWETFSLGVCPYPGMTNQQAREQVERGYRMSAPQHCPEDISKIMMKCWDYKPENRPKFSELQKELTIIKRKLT
Chain of Aurora kinase B (Homo sapiens) (Q96GD4 whole entry): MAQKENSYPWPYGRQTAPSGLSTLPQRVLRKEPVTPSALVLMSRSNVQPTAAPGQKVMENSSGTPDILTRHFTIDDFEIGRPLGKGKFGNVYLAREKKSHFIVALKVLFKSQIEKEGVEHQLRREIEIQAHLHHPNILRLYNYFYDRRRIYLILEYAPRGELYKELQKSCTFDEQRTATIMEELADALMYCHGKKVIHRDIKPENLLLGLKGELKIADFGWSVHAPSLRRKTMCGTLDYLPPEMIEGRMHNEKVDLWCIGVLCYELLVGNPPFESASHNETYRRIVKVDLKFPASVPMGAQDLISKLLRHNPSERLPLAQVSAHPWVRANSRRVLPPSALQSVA

## NCC1CN(c2ncnc3[nH]c4cnccc4c23)CCO1 (centres undefined)
[1]
  inhibition: 7.5%
[2]
  inhibition: 95%

## COC(=O)c1cnc(Nc2cnc(C#N)cn2)cc1NCC1CCNCC1
[3]
  inhibition: 3.5%
[4]
  inhibition: 1%

## c1nc(N2CCOCC2)c2nc[nH]c2n1
[5]
  inhibition: 96%
[6]
  inhibition: 78.5%
[7]
  inhibition: 66%

## Clc1ccc(C2(c3ccc(-c4ncnc5[nH]cnc45)cc3)CCNCC2)cc1
[8]
  inhibition: 55%
[9]
  inhibition: 13%
[10]
  inhibition: 2.5%

## NC1CCN(c2ncnc3[nH]ccc23)CC1
[11]
  inhibition: 7.5%
[12]
  inhibition: 1%
[13]
  inhibition: 0%

## c1cnc2[nH]ccc2c1
[14]
  inhibition: 87%
